From patent publication US9822373B2, “Mutant cells for protein secretion and lignocellulose degradation” (The Regents of the University of California, priority 2011, dated 2017)

Legend:
[1] = system: endoglucanase 2 (eg-2 / gh5-1, NCU00762); test: Quantitative RT-PCR of eg-2/gh5-1 expression after 4 h induction with a carbon source; type: cell-based, Neurospora crassa
Procedure: Strains were inoculated at an OD595 equal to 0.05 in 50 ml Vogel's salts with 2% (wt/vol) sucrose in a 250 ml Erlenmeyer flask and grown under constant light at 200 rpm for 16 hours. The biomass was then spun at 4000 rpm for 10 minutes and washed in Vogel's twice to remove any excess sucrose. The biomass was then added to a new 50 ml culture with 2% (wt/vol) sucrose, cellobiose (Sigma) or Avicel® PH 101 (Avicel®). Cultures were induced for 4 hours under constant light at 200 rpm. The culture biomass was then harvested by filtration over a Whatman glass microfiber filter (GF/F) on a Buchner funnel and washed with 50 ml Vogel's, biomass was flash frozen in liquid Nitrogen and stored at −80° C.
Total RNA from frozen samples was isolated using Zirconia/Silica beads (0.2 g, 0.5 mm diameter; Biospec) and a Mini-Beadbeater-96 (Biospec) with 1 mL TRIzol reagent (Invitrogen) according to manufacturer's instructions. Total RNA was further purified by digestion with TURBO DNA-free (Ambion) and an RNeasy kit (Qiagen). RNA integrity was checked by Nanodrop and agarose gel electrophoresis.
Quantitative RT-PCR was performed using the EXPRESS One-Step SYBR GreenER Kit (Invitrogen) and the StepOnePlus Real-Time PCR System (Applied Biosystems). Reactions were performed in triplicate with a total reaction volume of 10 ul including 300 nM each forward and reverse primers and 75 ng template RNA. Data Analysis was performed by the StepOne Software (Applied Biosystems) using Relative Quantitation/Comparative CT (ΔΔCT). Data was normalized to the endogenous control actin with expression on sucrose as the reference sample. Error bars indicate a 95% confidence interval. The RT-PCR primers were used as described in (Tian et al., 2009).
Conidia from strains were inoculated at an OD595 equal to 0.05 in 50 ml Vogel's salts (45) with 2% w/v sucrose in a 250 ml Erlenmeyer flask and grown under constant light at 200 rpm for 16 hours. Biomass was then spun at 4200 rpm for 10 minutes and washed in Vogel's salts twice to remove any excess sucrose. Biomass was then added to a new flask containing 50 ml Vogel's salts supplemented with 1% w/v sucrose, 0.2% w/v cellobiose (Sigma) or 1% w/v Avicel® PH 101 (Sigma). Cultures were induced for 4 hrs under constant light at 200 rpm. The culture biomass was then harvested by filtration over a Whatman glass microfiber filter (GF/F) on a Buchner funnel and washed with 50 ml Vogel's salts. […] Three independent biological duplicates (flasks) were evaluated for each time point. […]
Quantitative RT-PCR was performed using the EXPRESS One-Step SYBR GreenER Kit (Invitrogen) and the StepOnePlus Real-Time PCR System (Applied Biosystems). […] Data Analysis was performed by the StepOne Software (Applied Biosystems) using the Relative Quantitation/Comparative CT (ΔΔCT) setting. […]

[2] = system: Neurospora crassa; test: Total Avicelase activity of bioreactor culture supernatant; type: cell-based; conditions: supernatant of the 24-hour induction time point
Procedure: Cellulase production was carried out in a 3.7 L bioreactor (BioEngineering AG) at an operating volume of 1 L. The bioreactor was equipped with one 48 mm Rushton impeller and four equally spaced baffles to provide adequate mixing. Impeller speed was controlled at 200 rpm for 8 hours to allow spore germination followed by 500 rpm for the remainder of the experiment. The temperature was maintained at 25° C., and medium pH was controlled at 5.5 using 40% phosphoric acid and 1:5 diluted ammonium hydroxide. The dissolved oxygen was maintained at a level greater than 20% of the saturation value of the medium by varying the aeration rate between 0.5 and 3 VVM in response to the dissolved oxygen tension. Minimal growth medium with 1% w/v sucrose as the sole carbon source (unless otherwise noted) was inoculated with 10^9 conidia. After 24 hours initial growth, cellulase production was induced with either cellobiose or Avicel® added to a final concentration of 0.2% w/v. […]
Sucrose, fructose, glucose and cellobiose were measured on a DIONEX ICS-3000 HPLC (Dionex Corp., Sunnyvale, Calif.) using a CarboPac PA20 Analytical Column (3×150 mm) and a CarboPac PA20 guard column (3×30 mm) at 30° C. […] Sugars were detected using PAD, Four-Potential Carbohydrate Waveform and Peaks were analyzed using the Chromeleon software package.

Compound: O=C[C@H](O)[C@@H](O)[C@H](O[C@@H]1O[C@H](CO)[C@@H](O)[C@H](O)[C@H]1O)[C@H](O)CO [cellobiose]
- eg-2 relative expression compared to sucrose ([1]; WT strain, 2% carbon source, 4 h induction): no change
- eg-2 increase in relative expression over expression on sucrose ([1]; triple β-glucosidase mutant, 2% carbon source, 4 h induction): 2,200 fold
- increase in transcription of eg-2 above expression on sucrose in the same strain ([1]; Δcre-1 strain, 4 h induction (Example 1)): 80 fold
- induction of gh5-1 ([1]; Δcre-1 strain, shifted from sucrose to 0.2% cellobiose for 4 hrs): 500 fold
- aggregate Avicelase activity, glucose equivalents ([2]; Δ3βG strain): 0.296 mg/mL
- aggregate Avicelase activity, glucose equivalents ([2]; Δ3βGΔcre strain): 0.424 mg/mL
